We go through 22 compounds from paper PMC7846937 (Bioorganic chemistry, 2020).

What all share (experiment): stopped-flow CO2 hydration assay
Assay type in all cases: biochemical

Assay [1] has as its target hCA I (Homo sapiens, UniProt P00915).
In assay [2] the target is hCA II (Homo sapiens, UniProt P00918).
Assay [3] deals with hCA XII (Homo sapiens, UniProt O43570).

Usually Ki stands for a dissociation constant, usually derived from enzyme kinetics or from competition with a known ligand. Read a low Ki as tighter binding.

Chain of hCA I (P00915 2-261): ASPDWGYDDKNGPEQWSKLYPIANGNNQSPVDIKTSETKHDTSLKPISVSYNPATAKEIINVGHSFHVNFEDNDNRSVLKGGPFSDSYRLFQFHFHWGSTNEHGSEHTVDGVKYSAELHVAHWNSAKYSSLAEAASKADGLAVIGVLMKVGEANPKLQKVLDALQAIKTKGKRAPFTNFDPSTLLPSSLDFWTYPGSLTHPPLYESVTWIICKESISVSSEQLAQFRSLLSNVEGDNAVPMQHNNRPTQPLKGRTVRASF
Chain of hCA XII (O43570 30-289 limits assumed): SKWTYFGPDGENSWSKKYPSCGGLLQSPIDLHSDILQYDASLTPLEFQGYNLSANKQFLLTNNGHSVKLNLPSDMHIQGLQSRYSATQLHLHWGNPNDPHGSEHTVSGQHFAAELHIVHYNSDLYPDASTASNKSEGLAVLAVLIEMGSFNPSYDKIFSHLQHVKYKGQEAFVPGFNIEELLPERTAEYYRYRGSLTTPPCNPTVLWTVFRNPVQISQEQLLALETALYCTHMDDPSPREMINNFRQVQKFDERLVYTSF

`Cc1cc(C)[n+](-c2cccc(S(N)(=O)=O)c2)c(C)c1` [19a, 2,4,6-Trimethyl-1-(3-sulfamoylphenyl)pyridinium hexafluorophosphate]: the inhibitory constant (Ki) in assay [1] amounted to 82.1 nM.
For `CCc1cc(C)cc(CC)[n+]1-c1cccc(S(N)(=O)=O)c1` [19b, 2,6-Diethyl-4-methyl-1-(3-sulfamoylphenyl)pyridinium hexafluorophosphate], the Ki in assay [1] turned out to be 86.3 nM; in assay [2], 8.5 nM; in assay [3], 4 nM.
For the compound `CCCc1cc(C)cc(CCC)[n+]1-c1cccc(S(N)(=O)=O)c1` [19c, 4-Methyl-2,6-di-n-propyl-1-(3-sulfamoylphenyl)pyridinium hexafluorophosphate], the values for the Ki in assay [1], in assay [2] and in assay [3] were 84.5 nM, 7.8 nM and 3.6 nM, respectively.
Consider `Cc1cc(C(C)C)[n+](-c2cccc(S(N)(=O)=O)c2)c(C(C)C)c1` [19d, 2,6-Diisopropyl-4-methyl-1-(3-sulfamoylphenyl)pyridinium hexafluorophosphate], for which the Ki was 33.8 nM in assay [1], 9.6 nM in assay [2] and 5.5 nM in assay [3].
Consider `CCCCc1cc(C)cc(CCCC)[n+]1-c1cccc(S(N)(=O)=O)c1` [19e, 2,6-Di-n-butyl-4-methyl-1-(3-sulfamoylphenyl)pyridinium hexafluorophosphate], for which the figures for the Ki in assay [1], in assay [2] and in assay [3] were 462 nM, 58.1 nM and 51.5 nM, respectively.
In the case of `CCc1cc(C)cc(C)[n+]1-c1cccc(S(N)(=O)=O)c1` [19f, 2-Ethyl-4,6-dimethyl-1-(3-sulfamoylphenyl)pyridinium hexafluorophosphate], the inhibition constant (Ki) in assay [1] was 63.6 nM; in assay [2], 12.9 nM; in assay [3] it was 3.7 nM.
With `CCCc1cc(C)cc(C)[n+]1-c1cccc(S(N)(=O)=O)c1` [19g, 2,4-Dimethyl-6-n-propyl-1-(3-sulfamoylphenyl)pyridinium hexafluorophosphate], the Ki in assay [1] came out at 70.1 nM; in assay [2], 7.2 nM; in assay [3] it was 5.4 nM.
The like results for `Cc1cc(C)[n+](-c2cccc(S(N)(=O)=O)c2)c(C(C)C)c1` [19h, 2-Isopropyl-4,6-dimethyl-1-(3-sulfamoylphenyl)pyridinium hexafluorophosphate] were, in that order, 60.7 nM, 10.4 nM and 7.4 nM.
As for `CCCCc1cc(C)cc(C)[n+]1-c1cccc(S(N)(=O)=O)c1` [19i, 2-n-Butyl-4,6-dimethyl-1-(3-sulfamoylphenyl)pyridinium hexafluorophosphate], the inhibition constant Ki worked out at 65.1 nM in assay [1], 6.8 nM in assay [2] and 4 nM in assay [3].
Turning to `Cc1cc(-c2ccccc2)cc(C)[n+]1-c1cccc(S(N)(=O)=O)c1` [19j, 2,6-Dimethyl-4-phenyl-1-(3-sulfamoyl-phenyl)-pyridinium hexafluorophosphate], the Ki in assay [1] is 65.3 nM; in assay [2], 1.2 nM; in assay [3] it was 0.87 nM.
As to `CCc1cc(-c2ccccc2)cc(CC)[n+]1-c1cccc(S(N)(=O)=O)c1` [19k, 2,6-Diethyl-4-phenyl-1-(3-sulfamoyl-phenyl)-pyridinium hexafluorophosphate], the results for the Ki in assay [1], in assay [2] and in assay [3] were 71.6 nM, 10.2 nM and 12.1 nM, respectively.
Taken in the same sequence, the figures for `CCCc1cc(-c2ccccc2)cc(CCC)[n+]1-c1cccc(S(N)(=O)=O)c1` [19l, 2,6-Di-n-propyl-4-phenyl-1-(3-sulfamoyl-phenyl)-pyridinium hexafluorophosphate] were 75.8 nM, 18 nM and 21.5 nM.
On to `CC(C)c1cc(-c2ccccc2)cc(C(C)C)[n+]1-c1cccc(S(N)(=O)=O)c1` [19m, 2,6-Diisopropyl-4-phenyl-1-(3-sulfamoylphenyl)pyridinium hexafluorophosphate], for which the values for the Ki in assay [1], in assay [2] and in assay [3] were 41.8 nM, 9.3 nM and 5.8 nM, respectively.
For the compound `CCCCc1cc(-c2ccccc2)cc(CCCC)[n+]1-c1cccc(S(N)(=O)=O)c1` [19n, 2,6-Di-n-butyl-4-phenyl-1-(3-sulfamoyl-phenyl)-pyridinium hexafluorophosphate], the Ki in assay [1] amounted to 433 nM; in assay [2], 49.3 nM; in assay [3], 40.2 nM.
Take `Cc1cc(-c2ccccc2)cc(-c2ccccc2)[n+]1-c1cccc(S(N)(=O)=O)c1` [19o, 2-Methyl-4,6-diphenyl-1-(3-sulfamoyl-phenyl)-pyridinium hexafluorophosphate]: the results for the inhibition constant Ki in assay [1], in assay [2] and in assay [3] were 8.5 nM, 3.4 nM and 0.96 nM, respectively.
As for `CCc1cc(-c2ccccc2)cc(-c2ccccc2)[n+]1-c1cccc(S(N)(=O)=O)c1` [19p, 2-Ethyl-4,6-diphenyl-1-(3-sulfamoyl-phenyl)-pyridinium hexafluorophosphate], the inhibitory constant (Ki) in assay [1] came out at 18 nM; in assay [2], 4 nM; in assay [3], 1.4 nM.
In the case of `CCCCc1cc(-c2ccccc2)cc(-c2ccccc2)[n+]1-c1cccc(S(N)(=O)=O)c1` [19s, 2-n-Butyl-4,6-diphenyl-1-(3-sulfamoyl-phenyl)-pyridinium hexafluorophosphate], the inhibitory constant (Ki) was found to be 137 nM in assay [1], 43.9 nM in assay [2] and 35.2 nM in assay [3].
Taken in the same sequence, the figures for `Cc1cc(C)[n+](-c2cccc(S(N)(=O)=O)c2)c(C)c1C` [19t, 2,3,4,6-Tetramethyl-1-(3-sulfamoylphenyl)pyridinium hexafluorophosphate] were 54.9 nM, 2.6 nM and 3.4 nM.
On to `Cc1c2cc(c(C)[n+]1-c1cccc(S(N)(=O)=O)c1)CCCCCCCCC2` [19u, 2,6-Dimethyl-3,5-(1,9-nonane-diyl)-1-(3-sulfamoyl-phenyl)pyridinium hexafluorophosphate], for which the values for the Ki in assay [1], in assay [2] and in assay [3] were 256 nM, 39.8 nM and 25.1 nM, respectively.
Consider `Cc1cc(C)[n+](-c2cccc(S(N)(=O)=O)c2)c(-c2ccccc2)c1` [19v, 2,4-Dimethyl-6-phenyl-1-(3-sulfamoylphenyl)pyridinium hexafluorophosphate], for which the Ki in assay [1] was found to be 72.3 nM; in assay [2], 8.8 nM; in assay [3], 4.7 nM.
With `Cc1cc(-c2ccccc2)[n+](-c2cccc(S(N)(=O)=O)c2)c(-c2ccccc2)c1` [19w, 4-Methyl-2,6-diphenyl-1-(3-sulfamoylphenyl)pyridinium hexafluorophosphate], the values for the Ki in assay [1], in assay [2] and in assay [3] were 19.7 nM, 6.7 nM and 8.8 nM, respectively.
The like results for `NS(=O)(=O)c1cccc(-[n+]2c(-c3ccccc3)cc(-c3ccccc3)cc2-c2ccccc2)c1` [19x, 2,4,6-Triphenyl-1-(3-sulfamoylphenyl)pyridinium hexafluorophosphate] were, in that order, 58 nM, 13 nM and 21.7 nM.
